# Experimental data published in patent publication US20220362267A1, “CAPACITATIVE CALCIUM ENTRY INHIBITORS” (UNIVERSITÉ PARIS-SACLAY, priority 2019, published 2022).
# Columns and labels:
# SOCE of Jurkat T cells = test: SOCE inhibition in thapsigargin-treated Jurkat cells (Indo-1 cytosolic calcium); type: cell-based; settings: for Ki: SOCE, compound added 30 s before reintroduction of calcium; for concentration below which only SOCE is inhibited (no effect on SERCA and IP3R): selectivity versus SERCA and IP3R
# Method: The Jurkat T lymphocyte line was mainly used for characterizing the effect of the molecules on SOCE. The Indo-1 ratiometric probe was used to visualize cytosolic calcium variations. For this, the cells in culture were centrifuged and then resuspended and incubated in PBS (Phosphate Buffered Saline) medium supplemented with 1 mg/ml of albumin and 4 μM of Indo-1-AM for 45 mim at ambient temperature and in the dark.
# The SOCE phenomenon was evaluated conventionally. Jurkat cells were placed in calcium-free HBS medium and stimulated with 1 μM of thapsigargin (TG, arrow in FIG. 2A) for 600 s in order to allow calcium release from the ER and SOCC channel opening(=CRAC). The addition of 1 mM of CaCl2 to the medium allows massive calcium ion entry through the SOCCs and an increase in the concentration of cytosolic calcium ([Ca^2+]cyt).
# The dose-response curves were established after addition of 2-APB or of an analog thereof 30 seconds before the reintroduction of calcium.
# [1] = test system: SOCE in MDA-MB231 cells (hormone-independent breast cancer cells); test: SOCE inhibition in MDA-MB231 cells; type: cell-based; settings: FIG. 3B
# Method: (§1) The Jurkat T lymphocyte line was mainly used for characterizing the effect of the molecules on SOCE. The Indo-1 ratiometric probe was used to visualize cytosolic calcium variations. For this, the cells in culture were centrifuged and then resuspended and incubated in PBS (Phosphate Buffered Saline) medium supplemented with 1 mg/ml of albumin and 4 μM of Indo-1-AM for 45 mim at ambient temperature and in the dark. The cells were then again centrifuged and resuspended in the HBS (Hepes-Buffered Saline) recording medium having the composition (in mM): 135 mM NaCl, 5.9 mM KCl, 1.2 mM MgCl2, 11.6 mM Hepes, 11.5 mM glucose, pH adjusted to 7.3 with NaOH. 0.5 to 1 million cells are then placed in the cuvette of a Varian Cary Eclipse spectrofluorimeter and the Indo-1 probe is excited at 360 nm, with emission of fluorescence at 405 and 480 nm. The ratio of fluorescence at 405 and 480 nm is directly proportional to the [Ca^2+]cyt.
# (§2) The lines of monocyte origin U937, B lymphocyte origin (DG75) and breast cancer origin (MDA-MB231) were also used with the same protocol.
# Jurkat cells = test: Cell death of Jurkat cells; type: cell-based
# SERCA = test: 45Ca2+ loading (SERCA activity) in permeabilized L15 cells; type: biochemical; settings: for Ki: permeabilized cells
# Method: (§3) To test the selectivity of certain molecules on SOCE compared to IP3R and SERCA, the L15 line stably expressing type 1 IP3R was used. Briefly, the cells were permeabilized with saponin and incubated in the presence of ^45Ca^2+ in a medium containing ATP allowing SERCA activity and Ca' ion entry into the ER. The addition of TG makes it possible to induce release from the ER and therefore to measure the amount of Ca^2+ ions that have left the ER, which is itself directly linked to the SERCA activity. The addition of IP3 allows direct measurement of the amount of Ca' ions leaving the ER by IP3R opening.
# (§4) The ^45Ca^2+ loading and IP3-dependent release measurements were carried out on permeabilized cells under one-way conditions.
# [2] = test system: PHA-stimulated Jurkat cells; test: IL-2 synthesis by PHA-stimulated Jurkat cells (Elisa); type: cell-based
# Method: In order to measure the interleukin-2 (IL-2) synthesis in 24 h after stimulation with 10 μg/ml of phytohemagglutinin (PHA) in the presence or absence of certain molecules, the Jurkat cells are centrifuged and the supernatant containing the IL-2 is collected. The 11-2 concentration is measured by Elisa (R&D systems kit).
# The concentration of neosynthesized IL-2 was measured in the culture medium of phytohemagglutinin (PHA)-stimulated Jurkat cells after 24 h, in the presence of increasing concentrations of compound P11. […] Conversely, stimulation with PHA allows the detection of approximately 100 pg/ml of IL-2 (103 ±4 pg/ml, FIG. 5A). The addition of increasing concentrations of P11 at the same time as the stimulation by PHA leads to a gradual decrease in IL-2 synthesis to 26±6 pg/ml for 1 μM of P11 (-74%, FIG. 5B).
# IP3R = target: T1, IP3R (Mus musculus, UniProt P11881); test: IP3-dependent 45Ca2+ release in permeabilized L15 cells; type: biochemical
# T1 construct: expressed in transfected cells; host or cells: L15 cell line, permeabilized with saponin
# Method: as §3, §4
# [3] = test system: caspase-3 activity of Jurkat cells; test: Caspase-3 activity in Jurkat cells (Ac-DEVD-AFC substrate); type: cell-based
# Method: The caspase-3 activity is measured with a fluorescent kit using the Ac-DEVD-AFC substrate. The Jurkat cells are incubated for 24 h with PHA in the presence or absence of certain molecules. The cells are then lyzed with RIPA medium, and the amounts of proteins are then measured with a commercial kit (Biorad). The cell lysates are then diluted in the following reaction medium: 200 mM Hepes, pH 7.4, 1 mM EDTA, 20% sucrose and 20 mM dithiothreitol, then incubated with 20 μM of the fluorogenic substrate for 45 min […] at 37° C. The appearance of the fluorescent AFC product is measured by spectrofluorimetry (excitation at 405 nm, emission at 505 nm).
# (§5) The caspase-3 activity was then evaluated by means of an Ac-DEVD-AFC fluorogenic substrate, and apoptosis was evaluated by means of a TUNEL assay.
# [4] = test system: Mn2+ influx via the SOCCs; test: Mn2+ quenching of indo-1 in TG-treated Jurkat cells; type: cell-based; settings: 1 μM
# Method: In order to determine whether compound P11 has an action on SOCE and not on calcium efflux mechanisms, a quenching experiment with Mn^2+ was carried out by means of the indo-1 molecule. The Mn^2+ ions enter the cells via the SOCCs, but cannot be pumped into the extracellular membrane by the plasma membrane calcium-dependent ATPases (plasma membrane Ca^2+ ATPases, or PMCA) or the sodium/calcium exchanger (Na^+/Ca^2+ exchanger, or NCX) or sent back into the lumen of the ER by the sarcoplasmic-endoplasmic reticulum Ca^2+ ATPases (or SERCAs). Once in the cell, Mn^2+ binds to indo-1 and quenches its fluorescence measured at 430 nm. An increase in the amplitude of the Mn^2+ influx is therefore associated with an increase in the indo-1 quenching rate, and vice versa.
# After 10 minutes of treatment with TG in order to open the SOCCs, 100 μM of MnCl2 were added. A degree of quenching of −0.89±0.05% Fo/s was observed (FIG. 3A). In the presence of increasing concentrations of P11 added 30 seconds before the addition of Mn^2+ ions, the degree of quenching decreased and reached a blocking of approximately 90% at 1 μM (−0.09±0.01, FIG. 3A).
# [5] = test system: SOCE in U937 cells (monocytes); test: SOCE inhibition in U937 cells; type: cell-based; settings: FIG. 3B
# Method: as §1, §2
# [6] = test system: SOCE in DG75 cells (B lymphocytes); test: SOCE inhibition in DG75 cells; type: cell-based
# Method: as §1, §2
# [7] = test system: PHA-stimulated Jurkat cells; test: TUNEL assay of DNA fragmentation in PHA-stimulated Jurkat cells; type: cell-based; settings: concentrations greater than 10 nM
# Method: The Roche TUNEL kit was used to observe the nuclear DNA fragmentation and therefore cell apoptosis.
# as §5
# Orai1-SOCE in leukocytes = settings: cited from earlier work
# [8] = PHA, increasing amounts of P11, FIG. 5C
# T1 sequence (P11881 whole entry): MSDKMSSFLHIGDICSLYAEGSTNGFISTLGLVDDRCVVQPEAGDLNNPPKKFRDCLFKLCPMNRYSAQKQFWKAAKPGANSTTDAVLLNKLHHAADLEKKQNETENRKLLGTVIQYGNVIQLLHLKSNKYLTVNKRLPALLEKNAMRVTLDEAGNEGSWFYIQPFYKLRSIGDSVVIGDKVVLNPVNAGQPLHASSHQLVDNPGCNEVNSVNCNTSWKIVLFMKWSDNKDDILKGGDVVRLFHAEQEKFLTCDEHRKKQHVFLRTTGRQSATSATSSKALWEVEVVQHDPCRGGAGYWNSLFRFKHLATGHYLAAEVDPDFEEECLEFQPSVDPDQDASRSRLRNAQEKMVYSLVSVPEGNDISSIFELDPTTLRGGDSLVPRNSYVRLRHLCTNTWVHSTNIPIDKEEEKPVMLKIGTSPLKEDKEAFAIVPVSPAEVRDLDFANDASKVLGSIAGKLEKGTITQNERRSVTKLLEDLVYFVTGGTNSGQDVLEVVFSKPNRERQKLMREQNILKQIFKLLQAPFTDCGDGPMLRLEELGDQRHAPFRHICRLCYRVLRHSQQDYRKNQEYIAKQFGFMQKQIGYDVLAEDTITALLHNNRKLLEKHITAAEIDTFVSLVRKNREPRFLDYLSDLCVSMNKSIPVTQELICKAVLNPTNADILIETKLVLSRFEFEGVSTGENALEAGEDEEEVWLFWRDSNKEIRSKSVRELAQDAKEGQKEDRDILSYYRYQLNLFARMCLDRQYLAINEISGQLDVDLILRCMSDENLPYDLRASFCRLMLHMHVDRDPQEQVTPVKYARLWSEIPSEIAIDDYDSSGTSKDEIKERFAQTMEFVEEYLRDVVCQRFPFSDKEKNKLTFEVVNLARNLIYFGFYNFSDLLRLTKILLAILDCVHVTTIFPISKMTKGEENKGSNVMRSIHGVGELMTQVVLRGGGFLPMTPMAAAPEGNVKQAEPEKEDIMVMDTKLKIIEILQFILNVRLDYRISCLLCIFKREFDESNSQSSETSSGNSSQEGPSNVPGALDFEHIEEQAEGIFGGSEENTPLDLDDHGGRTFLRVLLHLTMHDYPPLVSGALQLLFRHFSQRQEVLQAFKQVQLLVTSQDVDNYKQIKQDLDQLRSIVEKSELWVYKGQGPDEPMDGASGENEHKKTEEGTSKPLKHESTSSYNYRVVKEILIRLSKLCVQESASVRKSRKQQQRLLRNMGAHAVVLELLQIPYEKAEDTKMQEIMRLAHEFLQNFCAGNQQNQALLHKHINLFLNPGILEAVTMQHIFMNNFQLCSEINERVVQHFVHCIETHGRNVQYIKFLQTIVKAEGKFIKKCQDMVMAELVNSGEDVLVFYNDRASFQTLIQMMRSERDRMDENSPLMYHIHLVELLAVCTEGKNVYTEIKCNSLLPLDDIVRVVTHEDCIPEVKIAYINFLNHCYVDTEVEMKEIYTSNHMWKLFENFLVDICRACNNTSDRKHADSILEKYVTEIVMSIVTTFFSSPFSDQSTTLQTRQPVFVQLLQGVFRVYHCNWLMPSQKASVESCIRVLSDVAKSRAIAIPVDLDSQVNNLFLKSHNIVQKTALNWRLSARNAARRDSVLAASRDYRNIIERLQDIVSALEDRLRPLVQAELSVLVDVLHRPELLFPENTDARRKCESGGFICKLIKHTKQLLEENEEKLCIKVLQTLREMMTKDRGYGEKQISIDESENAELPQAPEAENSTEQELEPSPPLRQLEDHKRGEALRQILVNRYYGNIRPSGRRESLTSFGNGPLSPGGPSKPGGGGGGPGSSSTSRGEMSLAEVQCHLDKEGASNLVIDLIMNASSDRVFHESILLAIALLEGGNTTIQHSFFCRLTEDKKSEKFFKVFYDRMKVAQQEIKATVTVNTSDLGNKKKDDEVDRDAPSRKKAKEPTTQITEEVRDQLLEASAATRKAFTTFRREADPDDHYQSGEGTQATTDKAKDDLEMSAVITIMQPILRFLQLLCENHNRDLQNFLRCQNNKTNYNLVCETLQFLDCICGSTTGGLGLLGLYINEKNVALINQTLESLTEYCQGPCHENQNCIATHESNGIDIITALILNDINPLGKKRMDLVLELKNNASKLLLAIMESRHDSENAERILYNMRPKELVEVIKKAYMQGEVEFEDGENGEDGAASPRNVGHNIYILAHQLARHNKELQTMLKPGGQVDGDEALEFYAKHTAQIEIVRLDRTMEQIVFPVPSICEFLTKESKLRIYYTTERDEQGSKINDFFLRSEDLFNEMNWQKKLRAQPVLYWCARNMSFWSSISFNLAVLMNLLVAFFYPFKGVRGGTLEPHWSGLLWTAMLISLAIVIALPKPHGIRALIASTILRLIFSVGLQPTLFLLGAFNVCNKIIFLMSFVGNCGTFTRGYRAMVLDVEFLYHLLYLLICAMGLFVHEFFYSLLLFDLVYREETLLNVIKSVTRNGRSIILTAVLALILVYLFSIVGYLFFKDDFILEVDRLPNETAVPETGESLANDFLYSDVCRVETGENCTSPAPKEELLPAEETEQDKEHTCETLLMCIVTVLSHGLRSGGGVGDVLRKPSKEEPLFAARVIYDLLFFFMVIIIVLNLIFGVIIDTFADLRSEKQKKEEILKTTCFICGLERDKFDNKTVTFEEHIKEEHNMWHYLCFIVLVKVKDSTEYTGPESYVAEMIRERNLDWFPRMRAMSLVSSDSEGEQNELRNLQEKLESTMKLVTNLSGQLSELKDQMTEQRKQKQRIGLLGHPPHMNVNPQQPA
compound,measurement,setting,value
Cc1cccc(B(OCCN)c2cccc(C)c2)c1 [Compound P5],Ki,SOCE of Jurkat T cells; Jurkat cells,2100 ± 600 nM
COc1cccc(B(OCCN)c2cccc(OC)c2)c1 [Compound P4],maximum inhibition of SOCE,SOCE of Jurkat T cells; Jurkat cells,80%
same,Ki,SOCE of Jurkat T cells; Jurkat cells,75000 ± 21000 nM
"NCCOB(c1ccc(-c2ccccc2)cc1)c1ccc(-c2ccccc2)cc1 [Compound P11, 2-(dibiphenyl-4-ylboryloxy)ethamine]",Ki,[1],50 ± 5 nM
same,percentage of dead cells,Jurkat cells; 1 μM combined with PHA,33.2±1.3%
same,"toxic effect on the cells, compound alone",Jurkat cells; without PHA,did not exhibit any toxic effect
same,ratio Ki SERCA versus Ki SOCE,SERCA; SERCA 7.4 μM vs SOCE 75 nM,100 times
same,inhibition of SERCA,SERCA; concentration greater than 30 μM,89%
same,Ki,SERCA,7400 nM
same,IL-2 concentration in culture medium,"[2]; 1 μM with 10 μg/ml PHA, 24 h",26 ± 6 pg/mL
same,change in IL-2 synthesis,"[2]; 1 μM with PHA, 24 h",-74%
same,IL-2 synthesized by the remaining living cells,[2]; [8],39.2 ± 8.6 pg/mL
same,decrease of IL-2 synthesis capacity of remaining living cells,[2]; [8],approximately 63%
same,Ki,SOCE of Jurkat T cells; Jurkat cells,75 ± 21 nM
same,concentration below which only SOCE is inhibited (no effect on SERCA and IP3R),SOCE of Jurkat T cells,less than 1 μM
same,inhibition at 100 µM,IP3R; 100 μM,29 ± 9%
same,caspase-3 activity,"[3]; 1 μM with PHA, 24 h",3332±113 AU
same,increase of caspase-3 activity (factor),"[3]; with PHA, from 10 nM, maximum effect",3
same,"caspase-3 activity, compound alone","[3]; without PHA, up to 1 μM",does not induce an increase in caspase-3 activity
same,blocking of Mn2+ quenching,[4],approximately 90%
same,degree of indo-1 quenching by Mn2+,"[4]; added 30 s before 100 μM MnCl2, after 10 min TG",−0.09±0.01 % Fo/s
same,Ki,[5],40 ± 5 nM
same,Ki,"[6]; DG75 cells (B lymphocytes), FIG. 3B",32 ± 2 nM
same,concentration at which total inhibition of SOCE is achieved,"[6]; FIG. 3B (other cell types: DG75, U937, MDA-MB231)",100 nM
same,cells containing fragmented DNA,[7],17.9±1.2%
same,fold increase in number of cells containing fragmented DNA,[7],4.5 fold
NCCOB(c1ccc(F)cc1)c1ccc(F)cc1 [Compound P14],Ki,SOCE of Jurkat T cells; Jurkat cells,5400 ± 300 nM
Cc1ccc(B(OCCN)c2ccc(C)c(Cl)c2)cc1Cl [Compound P15],Ki,SOCE of Jurkat T cells; Jurkat cells,294 ± 74 nM
CC(C)(C)c1ccc(B(OCCN)c2ccc(C(C)(C)C)cc2)cc1 [Compound P9],Ki,SERCA,6000 ± 300 nM
same,Ki,SOCE of Jurkat T cells; Jurkat cells,641 ± 103 nM
same,concentration below which only SOCE is inhibited (no effect on SERCA and IP3R),SOCE of Jurkat T cells,Below 3 μM
same,inhibition of IP3R activity (in words),IP3R; FIG. 4,did not significantly inhibit
COc1ccc(B(OCCN)c2ccc(OC)cc2)cc1 [Compound P2],Ki,SOCE of Jurkat T cells; Jurkat cells,3500 ± 650 nM
NCCOB(c1ccc(Cl)cc1)c1ccc(Cl)cc1 [Compound P13],Ki,SOCE of Jurkat T cells; Jurkat cells,1840 ± 100 nM
Cc1ccc(B(OCCN)c2ccc(C)c(C)c2)cc1C [Compound P7],Ki,SOCE of Jurkat T cells; Jurkat cells,751 ± 97 nM
CC(C)(C)c1ccc(B(OCCN)c2ccc(C(C)(C)C)cc2)cc1 [Compound P8],Ki,SOCE of Jurkat T cells; Jurkat cells,350 ± 40 nM
"NCCOB(c1ccccc1)c1ccccc1 [Compound 2-APB, 2-Aminoethoxydiphenyl borate, reference compound]",effect on calcium entry at 5 μM,"SOCE of Jurkat T cells; Jurkat cells, 5 μM, FIG. 2A",high potentiation of calcium entry
same,effect on calcium entry at 50 μM,"SOCE of Jurkat T cells; Jurkat cells, 50 μM, FIG. 2A",virtually total inhibition
same,concentration at which Orai1-SOCE is inhibited,Orai1-SOCE in leukocytes,greater than 30 μM
Cc1ccc(B(OCCN)c2ccc(C)cc2)cc1 [Compound P3],Ki,SOCE of Jurkat T cells; Jurkat cells,3500 ± 600 nM
